Where two headings read alike, the source gives them in different places.
Experiments:
[1] = biological target: mGPR17 (Mus musculus, UniProt Q6NS65); test: Endpoint cAMP in GLUTag cells expressing mGPR17; type: cell-based; design: host or cells: GLUTag cells, adenoviral transduction
Experimental: (§1) GLUTag cells were maintained in Dulbecco’s Modified Eagle Medium (DMEM) supplemented with 10% fetal bovine serum and 1% penicillin–streptomycin in a humidified incubator at 37 °C and 5% CO2. For adenovirus transduction, GLUTag cells were seeded into poly-D-lysine coated 96-well plates or 4-chamber slides. The next day, cells were transduced with adenoviruses (100–1250 viral particles per cell at time of seeding) as indicated. After 24–30 h, adenovirus-containing media was changed to serum-free growth media for overnight serum starvation. The following day, GLUTag cells were used for cAMP or calcium signaling assays, GLP-1 secretion assays, or immunostaining and imaging.
Endpoint cAMP measurements were conducted as follows. GLUTag cells were seeded into poly-D-lysine-coated 96-well plates and transduced with adenovirus as specified above and then tested for cAMP signaling. Medium was removed and cells were washed with cAMP stimulation buffer (Hanks’ balanced salt solution (HBSS), 20 mM HEPES, pH 7.4) and then incubated in cAMP stimulation buffer for 30 min at 37 °C and 5% CO2. Cells were then treated for 30 min with agonist and forskolin in the presence of 500 µM IBMX at 37 °C and 5% CO2. Stimulation buffer was then decanted, and cAMP lysis buffer (50 mM HEPES, 10 mM CaCl2, 0.35% Triton X-100, and 500 µM IBMX) was added and shaken at 700 rpm for 1 h. Lysate was transferred to a 384-well plate, and the cAMP levels were quantified using the Cisbio HTRF cAMP (Gi kit; Revvity, Waltham, MA, USA) according to the manufacturer’s protocol.

[2] = biological target: hGPR17L (Homo sapiens, UniProt Q13304); test: Calcium flux (Calcium 6) in GLUTag cells expressing hGPR17L; type: cell-based; design: host or cells: GLUTag cells (murine enteroendocrine line), adenoviral transduction; Mean Diff. Ctl vs. hGPR17L: unit not given here; conditions: for Mean Diff.: hGPR17L; for Mean Diff. (Tukey's multiple comparisons test, Figure 4C): hGPR17L-WT
Sequence of hGPR17L (Q13304 whole entry): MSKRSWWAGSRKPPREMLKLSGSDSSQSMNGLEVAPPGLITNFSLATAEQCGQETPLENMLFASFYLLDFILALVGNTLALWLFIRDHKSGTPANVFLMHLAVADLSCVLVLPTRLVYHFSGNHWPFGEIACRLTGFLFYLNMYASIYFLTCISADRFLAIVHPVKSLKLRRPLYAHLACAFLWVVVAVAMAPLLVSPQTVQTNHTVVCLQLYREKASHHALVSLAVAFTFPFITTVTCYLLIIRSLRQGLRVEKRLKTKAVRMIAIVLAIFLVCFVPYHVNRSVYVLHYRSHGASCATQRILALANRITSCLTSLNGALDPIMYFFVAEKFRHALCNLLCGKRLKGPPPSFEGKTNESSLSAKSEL
Experimental: as §1
GLUTag cells were seeded into black, clear bottom, poly-D-lysine-coated 96-well plates. Cells were transduced and serum starved as specified above. Growth medium was then replaced with 100 μL/well assay buffer (HBSS, 20 mM HEPES, pH 7.4) and 100 μL/well Calcium 6 loading dye (R8190; Molecular Devices, San Jose, CA, USA). During dye loading, cells were incubated at 37 °C and 5% CO2 for 2 h. MDL29,951 or KCl was added to the wells and fluorescence (485 nm excitation, 525 nm emission, and 515 nm automatic emission cutoff) was measured using a Molecular Devices FlexStation3 (Molecular Devices) at 37 °C. For experiments with PTX, cells were pretreated with 100 ng/mL PTX overnight and 100 ng/mL PTX was included with Calcium 6 loading dye for calcium flux assays. For experiments with YM-254890, cells were pretreated for 30 min at 37 °C.

Sequence of mGPR17 (Q6NS65 whole entry): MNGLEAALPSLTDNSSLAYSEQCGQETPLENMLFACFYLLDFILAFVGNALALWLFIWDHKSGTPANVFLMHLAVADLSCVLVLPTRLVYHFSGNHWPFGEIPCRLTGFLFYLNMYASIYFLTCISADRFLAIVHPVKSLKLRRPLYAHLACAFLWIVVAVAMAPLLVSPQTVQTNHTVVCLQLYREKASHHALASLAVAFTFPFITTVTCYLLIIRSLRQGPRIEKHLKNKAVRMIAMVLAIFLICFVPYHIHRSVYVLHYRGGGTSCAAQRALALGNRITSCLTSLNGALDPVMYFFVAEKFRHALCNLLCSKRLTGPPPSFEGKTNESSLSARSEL

## O=C(O)CCc1c(C(=O)O)[nH]c2cc(Cl)cc(Cl)c12 [MDL29,951]
[1]; 10 µM forskolin, GLUTag mGPR17
  concentration of maximal inhibition of forskolin-stimulated cAMP: 1 µM
[1]; mGPR17 (100), log [MDL29,951] (M) -4.0 vs. Vehicle, Forskolin stimulation, Figure 4B
  Mean Diff. (Tukey's multiple comparisons test), cAMP, Row 10 vs. Row 11: -19.04
[1]; mGPR17 (100), log [MDL29,951] (M) -4.6 vs. Vehicle, Forskolin stimulation, Figure 4B
  Mean Diff. (Tukey's multiple comparisons test), cAMP, Row 9 vs. Row 11: -22.19
[1]; mGPR17 (100), log [MDL29,951] (M) -5.2 vs. Vehicle, Forskolin stimulation, Figure 4B
  Mean Diff. (Tukey's multiple comparisons test), cAMP, Row 8 vs. Row 11: -23.87
[1]; mGPR17 (100), log [MDL29,951] (M) -5.8 vs. Vehicle, Forskolin stimulation, Figure 4B
  Mean Diff. (Tukey's multiple comparisons test), cAMP, Row 7 vs. Row 11: -30.13
[1]; mGPR17 (100), log [MDL29,951] (M) -6.4 vs. Vehicle, Forskolin stimulation, Figure 4B
  Mean Diff. (Tukey's multiple comparisons test), cAMP, Row 6 vs. Row 11: -28.75
[1]; mGPR17 (100), log [MDL29,951] (M) -7.0 vs. Vehicle, Forskolin stimulation, Figure 4B
  Mean Diff. (Tukey's multiple comparisons test), cAMP, Row 5 vs. Row 11: -21.6
[1]; mGPR17 (100), log [MDL29,951] (M) -7.6 vs. Vehicle, Forskolin stimulation, Figure 4B
  Mean Diff. (Tukey's multiple comparisons test), cAMP, Row 4 vs. Row 11: -16.65
[1]; mGPR17 (100), log [MDL29,951] (M) -8.2 vs. Vehicle, Forskolin stimulation, Figure 4B
  Mean Diff. (Tukey's multiple comparisons test), cAMP, Row 3 vs. Row 11: -3.513
[1]; mGPR17 (100), log [MDL29,951] (M) -8.8 vs. Vehicle, Forskolin stimulation, Figure 4B
  Mean Diff. (Tukey's multiple comparisons test), cAMP, Row 2 vs. Row 11: -3.853
[1]; mGPR17 (100), log [MDL29,951] (M) -9.4 vs. Vehicle, Forskolin stimulation, Figure 4B
  Mean Diff. (Tukey's multiple comparisons test), cAMP, Row 1 vs. Row 11: -5.46
[2]; Figure 1B, Ctl vs. hGPR17L at log [MDL29,951] (M) -4.5
  Mean Diff. Ctl vs. hGPR17L: -0.777
[2]; Figure 1B, Ctl vs. hGPR17L at log [MDL29,951] (M) -5.0
  Mean Diff. Ctl vs. hGPR17L: -0.707
[2]; Figure 1B, Ctl vs. hGPR17L at log [MDL29,951] (M) -5.5
  Mean Diff. Ctl vs. hGPR17L: -0.62
[2]; Figure 1B, Ctl vs. hGPR17L at log [MDL29,951] (M) -6.0
  Mean Diff. Ctl vs. hGPR17L: -0.5407
[2]; Figure 1B, Ctl vs. hGPR17L at log [MDL29,951] (M) -6.4
  Mean Diff. Ctl vs. hGPR17L: -0.458
[2]; Figure 1B, Ctl vs. hGPR17L at log [MDL29,951] (M) -6.9
  Mean Diff. Ctl vs. hGPR17L: -0.31
[2]; Figure 1B, Ctl vs. hGPR17L at log [MDL29,951] (M) -7.4
  Mean Diff. Ctl vs. hGPR17L: -0.206
[2]; Figure 1B, Ctl vs. hGPR17L at log [MDL29,951] (M) -7.9
  Mean Diff. Ctl vs. hGPR17L: -0.06033
[2]; Figure 1B, Ctl vs. hGPR17L at log [MDL29,951] (M) -8.3
  Mean Diff. Ctl vs. hGPR17L: -0.009667
[2]; Figure 1B, Ctl vs. hGPR17L at log [MDL29,951] (M) -8.8
  Mean Diff. Ctl vs. hGPR17L: -0.002
[2]; Figure 1B, log [MDL29,951] (M) -4.5 vs. Vehicle
  Mean Diff.: 0.758
[2]; Figure 1B, log [MDL29,951] (M) -5.0 vs. Vehicle
  Mean Diff.: 0.6893
[2]; Figure 1B, log [MDL29,951] (M) -5.5 vs. Vehicle
  Mean Diff.: 0.6163
[2]; Figure 1B, log [MDL29,951] (M) -6.0 vs. Vehicle
  Mean Diff.: 0.538
[2]; Figure 1B, log [MDL29,951] (M) -6.4 vs. Vehicle
  Mean Diff.: 0.47
[2]; Figure 1B, log [MDL29,951] (M) -6.9 vs. Vehicle
  Mean Diff.: 0.3087
[2]; Figure 1B, log [MDL29,951] (M) -7.4 vs. Vehicle
  Mean Diff.: 0.2053
[2]; Figure 1B, log [MDL29,951] (M) -7.9 vs. Vehicle
  Mean Diff.: 0.06133
[2]; Figure 1B, log [MDL29,951] (M) -8.3 vs. Vehicle
  Mean Diff.: 0.004667
[2]; Figure 1B, log [MDL29,951] (M) -8.8 vs. Vehicle
  Mean Diff.: -0.001667
[2]; GLUTag hGPR17L, Figure 1B
  maximum peak ΔF/F, calcium flux: 0.80 ± 0.07
  pEC50, calcium flux: 6.66 ± 0.13
[2]; GLUTag hGPR17L, Figure 1B, read-out: potency (EC50), calcium flux
  EC50: 220 nM
[2]; PTX-treated versus vehicle-treated cells
  shift in the EC50 of MDL29,951, calcium mobilization: 3 fold
[2]; log [MDL29,951] (M) -4.5 vs. Vehicle
  Mean Diff. (Tukey's multiple comparisons test, Figure 4C): 100.4
[2]; log [MDL29,951] (M) -5.0 vs. Vehicle
  Mean Diff. (Tukey's multiple comparisons test, Figure 4C): 91.26
[2]; log [MDL29,951] (M) -5.5 vs. Vehicle
  Mean Diff. (Tukey's multiple comparisons test, Figure 4C): 81.52
[2]; log [MDL29,951] (M) -6.0 vs. Vehicle
  Mean Diff. (Tukey's multiple comparisons test, Figure 4C): 71.5
[2]; log [MDL29,951] (M) -6.4 vs. Vehicle
  Mean Diff. (Tukey's multiple comparisons test, Figure 4C): 61.96
[2]; log [MDL29,951] (M) -6.9 vs. Vehicle
  Mean Diff. (Tukey's multiple comparisons test, Figure 4C): 41.28
[2]; log [MDL29,951] (M) -7.4 vs. Vehicle
  Mean Diff. (Tukey's multiple comparisons test, Figure 4C): 27.22
[2]; log [MDL29,951] (M) -7.9 vs. Vehicle
  Mean Diff. (Tukey's multiple comparisons test, Figure 4C): 8.591
[2]; log [MDL29,951] (M) -8.3 vs. Vehicle
  Mean Diff. (Tukey's multiple comparisons test, Figure 4C): 0.737
[2]; log [MDL29,951] (M) -8.8 vs. Vehicle
  Mean Diff. (Tukey's multiple comparisons test, Figure 4C): -0.2507
[2]; vehicle-treated cells, Figure 2C
  pEC50, calcium mobilization: 6.34 ± 0.06
[2]; vehicle-treated cells, Figure 2C, read-out: EC50, calcium mobilization
  EC50: 440 nM

Reference: publication PMC11762167, “G Protein-Coupled Receptor 17 Inhibits Glucagon-like Peptide-1 Secretion via a Gi/o-Dependent Mechanism in Enteroendocrine Cells” (Biomolecules, 2024)
